From US11390621B2, “Chiral indole compounds and their use” (ARIAGEN, INC., priority 2019, dated 2022)
Several values for one entry are separate records, joined by “and”; a condition that tells them apart may be missing. Equal entries are not always repeated.

Columns and labels:
Type in all cases: in vitro ADME
[1] = Hepatocyte intrinsic clearance assay (metabolic stability), human hepatocytes; details: male, human, cryopreserved pooled hepatocytes, Human Hepatocytes, 1 μM test compound
Text: (§1) The liver is an important organ in the body for drug metabolism. This Example describes hepatocyte intrinsic clearance assays using both human and rat hepatocytes to evaluate the metabolic stability of the indole compounds disclosed herein. The parameters measured include t1/2 (half-life), CLint (intrinsic clearance), and EH (hepatic extraction ratio).
(§2) Testosterone (Lot FE111011-01) was obtained from Cerilliant (Round Rock, Tex.). 7-hydroxycoumarin (Lot 11631ED) was obtained from Sigma Aldrich (St. Louis, Mo.). Cryopreserved human hepatocytes pooled from ten donor males (X008001), cryopreserved male IRC/CD-1 mouse hepatocytes (M005052), INVITROGRO HI Medium (incubation), and INVITROGRO HT Medium (thawing) were obtained from Bioreclamation IVT (Baltimore, Md.). All solvents were obtained from commercial sources and used without further purification.
(§3) Each test compound was prepared as a 1 mM stock solution in DMSO. A 2 μM solution of test compound and positive controls were prepared in INVITROGRO HI Medium (incubation). These solutions were pre-warmed in a sterile incubator set to maintain 37° C., 5% CO2, and 98% humidity. Cryopreserved hepatocytes were prepared at a concentration of 2×10^6 living cells/mL in incubation media and pre-warmed in the incubator. The compound solutions and hepatocyte mixtures were then combined at a ratio of 1:1 (v:v). The final volume of the reaction mixture was 750 μL, containing 1 μM test compound (10 μM for 7-hydroxycoumarin) and […]. The reaction mixture was placed in the incubator on a plate shaker. After 0, 15, 30, 60, 90, and 120 minutes of incubation, 100 μL of reaction mixtures were removed from the incubation plate and mixed with 150 μL of ice-cold acetonitrile in a designated well of a 96-well crash plate. The 96-well crash plate was placed on ice for 15 min, and samples were centrifuged (3,600 RPM, 10 min, 4° C.) to precipitate protein. The supernatants were diluted 1:1 (v:v) with water containing 0.15 μM verapamil and/or 1 μM tolbutamide (internal standards for positive and negative modes, respectively) in a 96-well shallow injection plate. This plate was sealed for LC-MS analysis. All measurements were done in duplicate.
(§4) The residual compound remaining (% R) was determined from LC-MS peak areas by comparison to the zero time point. Metabolic half-life (t1/2) and intrinsic clearance (CLint) values were calculated from the slope of the plot of ln (% R) vs. time and the concentration of hepatocytes present in the incubation. Percent remaining at 60 minutes was calculated by plugging in the 60 minute value into the slope equation generated by the percent remaining time points.
(§5) In vivo hepatic clearance CLH was calculated using the well stirred liver model according to the following equation:
(§6) [formula] where QH is the total liver blood flow, fu is unbound fraction of the drug, and CL′int is defined as follows: CL′int=CLint×(10^6 cells/g of liver weight)×(g liver weight/kg of body weight). In the first approximation, used in this study, fu=1.
(§7) Hepatic extraction ratio EH was calculated using the following equation:
(§8) [formula] Corresponding physiological parameters used in calculations for all species are shown below in Table 3.

human hepatocytes = assay: as above; details: Human Hepatocytes; for EH (hepatic extraction ratio): well stirred liver model, fu=1
Text: as §1, §2, §3, §4, §5, §6, §7, §8

[2] = Hepatocyte intrinsic clearance assay (metabolic stability), rat hepatocytes; details: rat, cryopreserved hepatocytes, Rat Hepatocytes, 1 μM test compound
Text: as §1, §2, §3, §4, §5, §6, §7, §8

rat hepatocytes = assay: as above; details: Rat Hepatocytes; well stirred liver model, fu=1
Text: as §1, §2, §3, §4, §5, §6, §7, §8

[3] = CYP profiling: turnover in human liver microsomes, 30 min, no inhibitor; design: % Compound Metabolized at 30 min, No Inhibitor: concentration or dose not given beside the values; details: HLMs
Protocol: (§9) In order to investigate the contributions of CYP1A2 and CYP3A4 to the metabolism of the compounds of the present disclosure, human liver microsomes were incubated with the test compounds for 30 minutes in the presence of selective chemical inhibitors furafylline (1A2) and ketoconazole (3A4).

CYP1A2 = target: T1, CYP1A2 (Homo sapiens, UniProt P05177); assay: CYP profiling: human liver microsomes with CYP1A2 inhibitor furafylline; design: % Compound Metabolized at 30 min, CYP1A2 Inhibitor: concentration or dose not given beside the values; details: HLMs; for % Inhibition Relative to Negative Control, 1A2: 30 min
T1 construct: from tissue; host or cells: human liver microsomes
T1 sequence (P05177 1-516): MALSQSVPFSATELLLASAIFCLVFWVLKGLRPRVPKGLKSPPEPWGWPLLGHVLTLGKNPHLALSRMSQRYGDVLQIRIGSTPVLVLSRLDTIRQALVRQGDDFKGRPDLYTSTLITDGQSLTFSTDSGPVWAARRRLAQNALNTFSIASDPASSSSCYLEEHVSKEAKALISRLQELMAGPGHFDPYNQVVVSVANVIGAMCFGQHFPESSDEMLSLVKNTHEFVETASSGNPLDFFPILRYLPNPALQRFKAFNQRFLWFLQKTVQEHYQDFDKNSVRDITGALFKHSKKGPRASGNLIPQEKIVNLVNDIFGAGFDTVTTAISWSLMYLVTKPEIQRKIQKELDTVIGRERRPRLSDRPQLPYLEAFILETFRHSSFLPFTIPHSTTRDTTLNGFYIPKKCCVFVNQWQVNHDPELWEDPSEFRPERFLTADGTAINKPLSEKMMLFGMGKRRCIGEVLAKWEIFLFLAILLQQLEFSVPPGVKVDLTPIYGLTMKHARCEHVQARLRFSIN
Protocol: as §9

CYP3A4 = target: T2, CYP3A4 (Homo sapiens, UniProt P08684); assay: CYP profiling: human liver microsomes with CYP3A4 inhibitor ketoconazole; design: % Compound Metabolized at 30 min, CYP3A4 Inhibitor: concentration or dose not given beside the values; details: HLMs; for % Inhibition Relative to Negative Control, 3A4: 30 min
T2 construct: from tissue; host or cells: human liver microsomes
T2 sequence (P08684 whole entry): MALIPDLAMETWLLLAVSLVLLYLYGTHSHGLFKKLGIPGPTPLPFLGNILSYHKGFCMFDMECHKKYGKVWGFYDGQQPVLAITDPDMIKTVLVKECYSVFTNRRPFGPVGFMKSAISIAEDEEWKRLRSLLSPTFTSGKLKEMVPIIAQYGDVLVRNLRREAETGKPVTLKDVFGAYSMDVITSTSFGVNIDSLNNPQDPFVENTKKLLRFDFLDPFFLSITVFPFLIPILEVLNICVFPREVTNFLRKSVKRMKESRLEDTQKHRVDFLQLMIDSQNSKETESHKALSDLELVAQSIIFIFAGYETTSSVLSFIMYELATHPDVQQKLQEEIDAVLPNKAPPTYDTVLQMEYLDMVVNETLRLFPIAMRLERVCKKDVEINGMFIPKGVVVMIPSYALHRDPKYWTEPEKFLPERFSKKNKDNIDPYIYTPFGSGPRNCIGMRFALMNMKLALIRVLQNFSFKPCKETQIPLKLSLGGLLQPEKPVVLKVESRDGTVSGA
Protocol: as §9

SMILES	half-life at 1 μM [1] [h]	hepatocyte CLint at 1 μM [1] [µL/min/1e6 cells]	EH (hepatic extraction ratio) (human hepatocytes)	half-life at 1 μM [2] [h]	hepatocyte CLint at 1 μM [2] [µL/min/1e6 cells]	EH (hepatic extraction ratio) (rat hepatocytes)	% Compound Metabolized at 30 min, No Inhibitor [3]	% Compound Metabolized at 30 min, CYP1A2 Inhibitor (CYP1A2)	% Inhibition Relative to Negative Control, 1A2 (CYP1A2)	% Compound Metabolized at 30 min, CYP3A4 Inhibitor (CYP3A4)	% Inhibition Relative to Negative Control, 3A4 (CYP3A4)	CLint (human hepatocytes; 1 μM test compound)
O=C(c1nc(C2(O)CC2)cs1)c1c[nH]c2cc(F)ccc12 [ARI-221, (6-fluoro-1H-indol-3-yl)(4-(1-hydroxycyclopropyl)thiazol-2-yl)methanone]	0.5	25.3	27.3%	2.1	5.55	27.1%	95%	28%	71%	82%	14%	
CC[C@H](N)c1csc(C(=O)c2c[nH]c3ccc(F)cc23)n1 [ARI-218]	1.3	9.16	22.2%	1	11.1	42.5%	16%	17%	None	0%	100%	
O=C(c1nc([C@H](O)C(F)(F)F)cs1)c1c[nH]c2cc(F)ccc12 [ARI-212]	0.3	44.1	28.9%	3	3.85	20.5%	43%	51%	None	24%	44%	
CC[C@@H](N)c1csc(C(=O)c2c[nH]c3ccc(F)cc23)n1 [ARI-219]	5.3	2.17	11.5%	0.5	21.4	58.9%	13%	5%	62%	23%	None	
CC(C)(O)c1csc(C(=O)c2c[nH]c3cc(F)ccc23)n1 [ARI-220, (6-fluoro-1H-indol-3-yl)(4-(2-hydroxypropan-2-yl)thiazol-2-yl)methanone]	1.4	8.33	21.6%	2.4	4.77	24.2%	41%	0%	100%	27%	34%	
CC[C@H](O)c1csc(C(=O)c2c[nH]c3cc(F)ccc23)n1 [ARI-164, (S)-(6-Fluoro-1H-indol-3-yl)(4-(1-hydroxypropyl)thiazol-2-yl)methanone]	0.7	15.7	25.3% and 24.6% and 25.2% and 19.9%			33.3% and 34.6% and 28.8% and 35.0% and 48.8%	37%	4%	89%	34%	8%	13.556 μL/min/10^6 cells and 15.446 μL/min/10^6 cells and 13.712 μL/min/10^6 cells and 15.383 μL/min/10^6 cells
CCC(=O)c1csc(C(=O)c2c[nH]c3cc(F)ccc23)n1 [ARI-143, 1-(2-(6-fluoro-1H-indole-3-carbonyl)thiazol-4-yl)propan-1-one]			26.1% and 25.5% and 25.7%			48.0% and 47.8% and 48.5% and 49.7% and 74.6%	69% and 91%	32% and 17%	54% and 81%	82% and 92%	None	
